Test system: Humane Glykogenphosphorylase a
Test: Glycogen phosphorylase a activity test (reverse direction, release of inorganic phosphate from glucose-1-phosphate)
Type: biochemical
Settings: 10 µM test substance; in vitro; 40 min at room temperature; absorbance at 820 nm; duplicate determinations
Procedure: Glykogenphosphorylase a Aktivitätstest
Der Effekt von Verbindungen auf die Aktivität der aktiven Form der Glykogenphosphorylase (GPa) wurde in der umgekehrten Richtung, durch Verfolgen der Glykogensynthese aus Glukose-1-Phosphat an Hand der Bestimmung der Freisetzung von anorganischem Phosphat, gemessen. […] Prüfsubstanzen wurden als 10 mM Lösung in DMSO zubereitet und auf 50 µM mit Pufferlösung T verdünnt. Zu 10 µl dieser Lösung wurden 10 µl 37,5 mM Glukose, gelöst in Pufferlösung T und 5 mg/mL Glykogen, sowie 10 µl einer Lösung von humaner Glykogenphosphorylase a (10 µg Protein/ml) und 20 µl Glukose-1-Phosphat, 2,5 mM zugegeben. Der basale Wert der Glykogenphosphorylase a Aktivität in Abwesenheit von Prüfsubstanz wurde durch Zugabe von 10 µl Pufferlösung T (0,1 % DMSO) bestimmt. […] Zur Bestimmung der Hintergrundsabsorption wurde in einem separaten Ansatz die Stop-Lösung unmittelbar nach Zugabe der Glukose-1-Phosphatlösung zugegeben. Dieser Test wurde mit einer Konzentrationen von 10 µM der Prüfsubstanz durchgeführt, um die jeweilige Hemmung der Glykogenphosphorylase a in vitro durch die Prüfsubstanz zu bestimmen. Tabelle 2: Biologische Aktivität

Row | Structure (SMILES) | % Inhibition bei 10 µM [%]
1 | O=C(O)/C=C/c1ccccc1NC(=O)NC(=O)c1cc(F)c(F)cc1Cl [compound 2, 3-{2-[3-(2-Chloro-4,5-difluorobenzoyl)-ureido]-phenyl}-acrylsäure] | 101
2 | COC(=O)C=Cc1cc(C(=O)O)ccc1NC(=O)NC(=O)c1cc(F)c(F)cc1Cl [compound 12, 4-[3-(2-Chloro-4,5-difluorobenzoyl)-ureido]-3-(2-methoxycarbonyl-vinyl)-benzoesäure] | 104

From patent EP1513800B1, “N-BENZOYLUREIDOCINNAMATE DERIVATIVES, METHOD FOR PRODUCTION AND USE THEREOF” (Sanofi-Aventis Deutschland GmbH, priority 2002, dated 2003)
